22 compounds from patent publication US20230113037A1 (Bayer Aktiengesellschaft, priority 2019, published 2023) can be followed below.

Some results are limits rather than exact numbers.

The first assay concerns the target T1, AHR (Homo sapiens, UniProt P35869).
T1 construct: U87 MG glioblastoma cells (ATCC #HTB-14) endogenously expressing AHR; endogenous in cells; host or cells: U87 MG glioblastoma cells (ATCC #HTB-14)
T1 sequence (P35869 11-848): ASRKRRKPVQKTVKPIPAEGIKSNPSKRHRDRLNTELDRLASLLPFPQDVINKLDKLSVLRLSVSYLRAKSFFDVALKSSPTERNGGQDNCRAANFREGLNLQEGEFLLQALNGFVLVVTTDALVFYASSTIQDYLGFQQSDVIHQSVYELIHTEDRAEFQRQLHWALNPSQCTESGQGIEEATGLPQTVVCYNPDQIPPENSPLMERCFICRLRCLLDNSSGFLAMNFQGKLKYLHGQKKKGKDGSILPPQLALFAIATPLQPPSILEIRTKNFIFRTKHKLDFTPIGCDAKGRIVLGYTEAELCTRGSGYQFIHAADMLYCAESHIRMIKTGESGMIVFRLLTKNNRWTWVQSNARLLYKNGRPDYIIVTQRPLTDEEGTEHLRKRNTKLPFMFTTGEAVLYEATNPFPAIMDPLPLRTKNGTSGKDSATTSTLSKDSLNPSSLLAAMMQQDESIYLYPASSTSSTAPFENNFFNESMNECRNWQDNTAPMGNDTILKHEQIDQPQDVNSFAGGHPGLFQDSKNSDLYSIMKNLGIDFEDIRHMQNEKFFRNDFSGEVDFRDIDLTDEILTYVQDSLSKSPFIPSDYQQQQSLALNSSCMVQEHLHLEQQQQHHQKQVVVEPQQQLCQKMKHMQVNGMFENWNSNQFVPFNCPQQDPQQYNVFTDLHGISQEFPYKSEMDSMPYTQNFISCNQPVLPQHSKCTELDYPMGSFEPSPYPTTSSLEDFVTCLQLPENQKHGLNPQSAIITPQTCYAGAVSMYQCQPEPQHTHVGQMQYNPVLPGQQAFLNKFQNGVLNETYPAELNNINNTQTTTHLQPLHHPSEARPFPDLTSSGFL
The assay is described as follows: In vitro assay 1: antagonism in human cell line (AHR transactivation, firefly luciferase reporter, kynurenic acid prestimulated). In kind it is cell-based. The following applies: AHR Antagonism Human IC50 [M]. The procedure:
Examples were tested in selected biological assays one or more times. When tested more than once, data are reported as either average values or as median values, wherein • the average value, also referred to as the arithmetic mean value, represents the sum of the values obtained divided by the number of times tested, and • the median value represents the middle number of the group of values when ranked in ascending or descending order. If the number of values in the data set is odd, the median is the middle value. If the number of values in the data set is even, the median is the arithmetic mean of the two middle values.
Transactivation assays were carried out in U87 MG glioblastoma cells (ATCC #HTB-14) endogenously expressing AHR. In addition the cells were stably transfected with an AHR inducible firefly luciferase reporter gene construct that carried AHR-binding sites (DRE) in its promoter and a renilla reporter gene construct with constitutively active promoter. Kynurenic acid is an endogenous AHR activating ligand and was used to prestimulate test cells prior to testing the antagonistic properties of compounds.
As positive inhibition control cells supplemented with 150 μM kynurenic acid were incubated in presence of 5 μM Staurosporin. Normalization was done by positive and negative controls.
Firefly luciferase and Renilla activity was determined by the DualGlo Luciferase Assay System (Promega, #2920). Renilla activity was used to assess toxic effects of compounds.
(In a reporter assay the amount or activity of a reporter protein is the signal.)
The term IC50 denotes the concentration that inhibits the measured activity by half. As for `Cn1cc(-c2nc3c4ccccc4nc(NC4CCNC4=O)n3n2)cn1` (single isomer, unassigned) [Example 19, 3-{[2-(1-methyl-1H-pyrazol-4-yl)[1,2,4]triazolo[1,5-c]quinazolin-5-yl]amino}pyrrolidin-2-one], the IC50 is > 2e-05 M.

In turn, `CCC[C@@H](Nc1nc2ccccc2c2nc(-c3csc(C)c3)nn12)C(=O)NC` [Example 357, N-methyl-N^2-[2-(5-methylthiophen-3-yl)[1,2,4]triazolo[1,5-c]quinazolin-5-yl]-D-norvalinamide] had an IC50 of 1.35e-09 M.

Take `COc1cc2nc(N[C@@H]3CCCCNC3=O)n3nc(-c4cnn(C)c4)nc3c2cc1OC` [Example 589, (3R)-3-{[8,9-dimethoxy-2-(1-methyl-1H-pyrazol-4-yl)[1,2,4]triazolo[1,5-c]quinazolin-5-yl]amino}azepan-2-one]: the IC50 is > 2e-05 M.

The compound `COc1cccc(-c2nc3c4ccccc4nc(NC4CCN(C)C4=O)n3n2)c1` (stereo not shown) [Example 80, 3-{[2-(3-methoxyphenyl)[1,2,4]triazolo[1,5-c]quinazolin-5-yl]amino}-1-methylpyrrolidin-2-one] showed an IC50 of 2.53e-08 M.

As for `O=C1NCCCC[C@H]1Nc1nc2c(C(F)(F)F)cccc2c2nc(-c3cccc(F)c3)nn12` [Example 581, (3R)-3-{[2-(3-fluorophenyl)-7-(trifluoromethyl)[1,2,4]triazolo[1,5-c]quinazolin-5-yl]amino}azepan-2-one], half-maximal inhibition (IC50) was put at 1.69e-09 M.

Regarding `O=C1NCCCC[C@H]1Nc1nc2ccccc2c2nc(-c3ccc(F)cc3)nn12` [Example 74, (3R)-3-{[2-(4-fluorophenyl)[1,2,4]triazolo[1,5-c]quinazolin-5-yl]amino}azepan-2-one], inhibition was half-maximal at 1.62e-10 M (IC50).

As to `COc1ccc2c(c1)nc(N[C@@H]1CCCCNC1=O)n1nc(-c3cnn(C)c3)nc21` [Example 550], it took 5.35e-06 M to reach half-maximal inhibition (IC50).

For `Cn1cc(-c2nc3c4cc(C(F)(F)F)ccc4nc(N[C@@H]4CCCCNC4=O)n3n2)cn1` [Example 546, (3R)-3-{[2-(1-methyl-1H-pyrazol-4-yl)-9-(trifluoromethyl)[1,2,4]triazolo[1,5-c]quinazolin-5-yl]amino}azepan-2-one], the IC50 amounted to 2.24e-06 M.

As to `COc1ccc(-c2nc3c4cc(OC)c(OC)cc4nc(N[C@@H]4CCCCNC4=O)n3n2)cc1` [Example 590, (3R)-3-{[8,9-dimethoxy-2-(4-methoxyphenyl)[1,2,4]triazolo[1,5-c]quinazolin-5-yl]amino}azepan-2-one], the IC50 came to 3.65e-07 M.

Compound `CCCCNC(=O)CNc1nc2ccccc2c2nc(-c3cccc(OC(F)(F)F)c3)nn12` [Example 317, N-butyl-N^2-{2-[3-(trifluoromethoxy)phenyl][1,2,4]triazolo[1,5-c]quinazolin-5-yl}glycinamide] had an IC50 of 1.45e-07 M.

With `Cc1cc(-c2nc3c4ccccc4nc(N[C@@H]4CCCCNC4=O)n3n2)cs1` [Example 352, (3R)-3-{[2-(5-methylthiophen-3-yl)[1,2,4]triazolo[1,5-c]quinazolin-5-yl]amino}azepan-2-one], the IC50 amounted to 9.72e-10 M.

For the compound `COc1cccc(-c2nc3c4ccc(F)cc4nc(N[C@H]4CCNC4=O)n3n2)c1` [Example 149, (3S)-3-{[8-fluoro-2-(3-methoxyphenyl)[1,2,4]triazolo[1,5-c]quinazolin-5-yl]amino}pyrrolidin-2-one], half-maximal inhibition (IC50) required 1.81e-07 M.

In turn, `O=C1NCCCC[C@H]1Nc1nc2ccccc2c2nc(-c3ccccc3)nn12` [Example 5, (3R)-3-[(2-phenyl[1,2,4]triazolo[1,5-c]quinazolin-5-yl)amino]azepan-2-one] showed an IC50 of 3.4e-10 M.

Consider `O=C1NCCCC[C@H]1Nc1nc2cccc(Cl)c2c2nc(-c3cccc(F)c3)nn12` [Example 167, (3R)-3-{[10-chloro-2-(3-fluorophenyl)[1,2,4]triazolo[1,5-c]quinazolin-5-yl]amino}azepan-2-one], for which the IC50 came to 6.39e-09 M.

Still in this assay, the particulars now being: AHR Antagonism Human IC50 [M], firefly luciferase reporter.
As to `C[C@@H](Nc1nc2c(C(F)(F)F)cccc2c2nc(-c3cnn(C)c3)nn12)C(=O)O` [Example 869, N-[2-(1-methyl-1H-pyrazol-4-yl)-7-(trifluoromethyl)[1,2,4]triazolo[1,5-c]quinazolin-5-yl]-D-alanine], the half-maximal inhibitory concentration (IC50) is > 2e-05 M.

Another assay concerns the target T2, AHR (Mus musculus, UniProt P30561).
T2 sequence (P30561 1-848 P471L/N533S/M589L): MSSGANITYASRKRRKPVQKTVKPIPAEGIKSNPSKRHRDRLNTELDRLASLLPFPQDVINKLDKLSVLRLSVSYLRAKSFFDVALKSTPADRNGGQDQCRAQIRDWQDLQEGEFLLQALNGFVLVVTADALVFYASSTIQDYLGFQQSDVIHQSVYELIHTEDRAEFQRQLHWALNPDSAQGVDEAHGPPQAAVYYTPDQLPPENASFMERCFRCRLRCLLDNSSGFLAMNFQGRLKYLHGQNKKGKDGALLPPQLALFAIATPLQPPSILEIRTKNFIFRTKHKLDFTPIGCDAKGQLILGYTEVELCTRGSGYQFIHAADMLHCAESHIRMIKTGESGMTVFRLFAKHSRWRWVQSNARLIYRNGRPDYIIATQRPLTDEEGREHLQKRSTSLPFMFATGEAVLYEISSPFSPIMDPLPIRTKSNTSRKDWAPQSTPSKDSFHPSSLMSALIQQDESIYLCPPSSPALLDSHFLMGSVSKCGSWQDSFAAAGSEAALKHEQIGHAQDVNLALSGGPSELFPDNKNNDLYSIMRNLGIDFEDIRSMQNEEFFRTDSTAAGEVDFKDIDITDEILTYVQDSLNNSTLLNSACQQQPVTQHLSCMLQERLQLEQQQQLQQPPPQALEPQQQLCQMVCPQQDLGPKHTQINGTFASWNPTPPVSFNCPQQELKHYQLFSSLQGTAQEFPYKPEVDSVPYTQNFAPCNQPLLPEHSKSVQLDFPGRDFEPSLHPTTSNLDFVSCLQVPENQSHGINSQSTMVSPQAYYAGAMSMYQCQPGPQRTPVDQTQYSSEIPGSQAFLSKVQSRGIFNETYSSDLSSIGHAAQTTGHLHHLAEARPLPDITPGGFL
Kind of assay: In vitro assay 3: antagonism in mouse cell line (AHR transactivation, firefly luciferase reporter, kynurenic acid prestimulated). The following applies: Hepa 1c1c7 cells, 200 μM kynurenic acid, 20 hours, firefly luciferase reporter, read-out: AHR Antagonism Mouse IC50. In kind it is cell-based. The gist of the method: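 Antagonism read as reduced firefly luciferase signal (SteadyGlo) from a stably transfected AHR/DRE reporter in a mouse line prestimulated with kynurenic acid. Data normalized to controls, the full-inhibition control being cells without kynurenic acid; multiple determinations given as average or median values.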
As to `COc1ccc(-c2nc3c4cccc(N(C)C)c4nc(N[C@@H]4CCCCNC4=O)n3n2)cc1` [Example 829, (3R)-3-{[7-(dimethylamino)-2-(4-methoxyphenyl)[1,2,4]triazolo[1,5-c]quinazolin-5-yl]amino}azepan-2-one], the IC50 worked out at 46.8 nM.

Regarding `COc1ccc(-c2nc3c4cccc(C)c4nc(N[C@H]4CNCCNC4=O)n3n2)cc1` [Example 970, (6S)-6-{[2-(4-methoxyphenyl)-7-methyl[1,2,4]triazolo[1,5-c]quinazolin-5-yl]amino}-1,4-diazepan-5-one], the IC50 stood at 52.9 nM.

Still in this assay, the particulars now being: mouse Hepa 1c1c7 cells, 200 μM kynurenic acid, 20 hours, read-out: AHR Antagonism Mouse IC50.
On to `O=C1NCCCC[C@@H]1Nc1nc2ccccc2c2nc(-c3ccccc3Br)nn12` [Example 453, (3S)-3-{[2-(2-bromophenyl)[1,2,4]triazolo[1,5-c]quinazolin-5-yl]amino}azepan-2-one], for which the IC50 came to 17.5 nM.

Regarding `COc1ccc(-c2nc3c4c(Cl)cccc4nc(NC4CNCCNC4=O)n3n2)cc1` (single isomer, unassigned) [Example 296, 6-{[10-Chloro-2-(4-methoxyphenyl)[1,2,4]triazolo[1,5-c]quinazolin-5-yl]amino}-1,4-diazepan-5-one], the IC50 came out at 73.1 nM.

As for `O=C1NCC[C@H]1Nc1nc2ccccc2c2nc(-c3ccc(OC(F)(F)F)cc3)nn12` [Example 327, (3R)-3-({2-[4-(trifluoromethoxy)phenyl][1,2,4]triazolo[1,5-c]quinazolin-5-yl}amino)pyrrolidin-2-one], the half-maximal inhibitory concentration (IC50) turned out to be 5.29 nM.

`COc1ccc(-c2nc3c4cccc(Br)c4nc(N[C@@H]4CCCCNC4=O)n3n2)cc1` [Example 215, (3R)-3-{[7-bromo-2-(4-methoxyphenyl)[1,2,4]triazolo[1,5-c]quinazolin-5-yl]amino}azepan-2-one]: the IC50 amounted to 1.23 nM.

With `COc1cccc(-c2nc3c4cc(C)ccc4nc(NC4CCCNC4=O)n3n2)c1` (stereo not shown) [Example 157, 3-{[2-(3-methoxyphenyl)-9-methyl[1,2,4]triazolo[1,5-c]quinazolin-5-yl]amino}piperidin-2-one], the IC50 stood at 45.4 nM.
